# Assay results published in PubChem BioAssay AID434987 (Southern Research Specialized Biocontainment Screening …, 2010).
# Calls of active or inactive are those of the source. The rule behind the calls is not given here.
# Test system: M. tuberculosis H37Rv growth inhibition with meropenem
# Assay: dose response, H37Rv, with and without meropenem (AID 434987);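 note: growth over 7 days at 37 °C before Alamar Blue read on day 9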
# [1] = M. tuberculosis H37Rv growth inhibition, measured here: IC50 without meropenem
# [2] = M. tuberculosis H37Rv growth inhibition, measured here: IC90 without meropenem
# [3] = measured here: IC90 with meropenem
SMILES,IC50,IC50 [1],IC90 [2],IC90 [3]
COc1ccc(-c2c(-c3ccsc3)oc3ccc(N4CCOCC4)cc23)cc1,> 100 µM (inactive),> 100 µM,> 100 µM,> 100 µM
COc1ccc(-c2c(C(F)(F)F)oc3cc(OCC(=O)Nc4ccccc4C(F)(F)F)ccc3c2=O)cc1OC,> 100 µM (inactive),> 100 µM,> 100 µM,> 100 µM
C/C(=N\NC(N)=S)c1ccc(-n2ccnc2)cc1,6.58 µM,> 100 µM,> 100 µM,> 100 µM
CC(C)CN(C(=O)CN1CCN(S(=O)(=O)c2ccccc2)CC1)c1c(N)n(CC(C)C)c(=O)[nH]c1=O,> 100 µM (inactive),> 100 µM,> 100 µM,> 100 µM
N#Cc1c(SCC(=O)O)nc(N2CCCCC2)c2c1CCCC2,15.6 µM,49.6 µM,> 100 µM,27 µM
COc1ccc(/C=N/Nc2nc(-c3ccc(C)cc3)c(NC(C)=O)s2)cc1,24.2 µM,> 100 µM,> 100 µM,> 100 µM
CC(C)C1CC(CCNCc2ccc(N(C)C)cc2)(c2ccccc2)CCO1 (stereo unspecified),24.5 µM (inactive),29 µM,40.7 µM,26.9 µM
O=C(N/N=C/c1c(Cl)cccc1Cl)c1cccc(F)c1,> 100 µM (inactive),> 100 µM,> 100 µM,> 100 µM
CC(=O)COc1ccc2c3c(c(=O)oc2c1C)CCCCC3,> 100 µM (inactive),> 100 µM,> 100 µM,> 100 µM
OCCCc1cn(-c2ccccc2)c2ccccc12,12.4 µM,> 100 µM,> 100 µM,60.8 µM
COc1cc(NC(=O)c2ccccc2F)c(OC)cc1NC(=O)CN1CCOCC1,29.2 µM,> 100 µM,> 100 µM,> 50 µM
O=C(CC12CC3CC(CC(C3)C1)C2)NCc1ccc(F)cc1,7.43 µM,> 100 µM,> 100 µM,10.4 µM
O=C(N/N=C/c1ccc2c(c1)OCO2)c1sc2cc(Cl)ccc2c1Cl,> 100 µM (inactive),> 100 µM,> 100 µM,> 100 µM
CS(=O)(=O)N(Cc1ccccc1)c1ccc(C(=O)N2CCN(c3cccc(Cl)c3)CC2)cc1,> 100 µM (inactive),> 100 µM,> 100 µM,> 100 µM
Cc1ccc(-n2nnnc2Sc2nc([N+](=O)[O-])nn2C)cc1,10.2 µM,51.4 µM,93.5 µM,> 100 µM
O=C(CN1C(=O)c2cccc([N+](=O)[O-])c2C1=O)N1CCN(c2ccc(F)cc2)CC1,58.6 µM (inactive),91.4 µM,> 100 µM,74.5 µM
O=C(Cn1cnc2sc3c(c2c1=O)CCCC3)NCC(=O)Nc1ccccc1F,88.3 µM (inactive),> 100 µM,> 100 µM,95.5 µM
CCN(Cc1ccncc1)C(=O)C(CO)c1ccccc1 (stereo unspecified),> 100 µM (inactive),> 100 µM,> 100 µM,> 100 µM
COc1ccc(OC)c(NC(=O)c2ccccc2SC)c1,19.8 µM,83 µM,> 100 µM,> 100 µM
O=C(Cn1nnc2c(cnn2-c2ccccc2)c1=O)N1CCN(c2ccccc2F)CC1,> 100 µM (inactive),> 100 µM,> 100 µM,> 100 µM
O=C(Oc1oc(-c2ccco2)nc1C=Nc1ccc(Cl)cc1)c1ccco1,15 µM,> 100 µM,> 100 µM,> 100 µM
CCOC(=O)c1cnn(-c2ncnc3sc4c(c23)CCC4)c1N,23.6 µM,> 100 µM,> 100 µM,> 50 µM
CN(C)S(=O)(=O)Oc1ccsc1C(=O)Nc1ccc(C(F)(F)F)cc1,> 100 µM (inactive),> 100 µM,> 100 µM,> 100 µM
CC12CCC(C/C1=N/NC(=O)Nc1ccccc1)C2(C)C (stereo unspecified),14.9 µM,> 100 µM,> 100 µM,> 50 µM
Cc1ccc(-n2ncc(-c3nnc(SCC(=O)NC4CCCC4)o3)c2N)cc1C,> 100 µM (inactive),> 100 µM,> 100 µM,> 100 µM
COc1ccc(/C=C2/CCCC(C(=O)C(F)(F)F)=C2O)cc1OC,34.6 µM,96.9 µM,> 100 µM,> 100 µM
CC(C)(C)OC(=O)N1CCC(NC(=O)c2[nH]cnc2C(=O)Nc2ccccc2)CC1,> 100 µM (inactive),> 100 µM,> 100 µM,> 100 µM
Cc1ccc(C2=N/C(=C\c3cccc(F)c3)C(=O)O2)cc1,1.49 µM,7.03 µM,79.6 µM,4.02 µM
COC(=O)[C@@]1(Cc2ccc(F)cc2)[C@H]2c3cc(C(=O)N(C)C)n(Cc4ccc(OC)c(OC)c4)c3C[C@H]2CN1C(=O)c1ccccc1,> 100 µM (inactive),> 100 µM,> 100 µM,> 100 µM
